# In patent US7785849B2, “Cyclic nucleotide-specific phosphodiesterases from Leishmania and uses thereof” (priority 2003, dated 2010):
# Read-outs that look alike come from different tables or passages of the source.
# Experiments:
# LmPDE-B1 = LmPDE-B1 (Leishmania major, UniProt Q6S997); assay: PDE activity assay in yeast lysates, recombinant LmPDE-B1 (3H-cAMP hydrolysis); assay type: biochemical; conditions: for IC50: read-out: IC50, inhibition of LmPDE-B1 activity
# Procedure: (§1) PP5 yeast cells expressing LmPDE-A, LmPDE-B1, and LmPDE-B2, were lysed as described previously (Zoraghi et al. (2001) J. Biol. Chem. 276, 11559-11566). The cells were grown to mid-log to end-log phase in SC-leu medium, collected, resuspended in the original volume of prewarmed YPD medium, and incubated for an additional 3.5 hours at 30° C. to maximize protein expression. The cells were then harvested, washed twice in H2O, pelleted by centrifugation, and stored overnight at −70° C. The cell pellet was thawed on ice and resuspended in ice-cold extraction buffer (50 mM Hepes pH 7.5, 100 mM NaCl, 1× Complete® protease inhibitor cocktail without EDTA (Roche)). Cells were lysed by grinding with glass beads (0.45-0.50 mm) in 2 ml Sarstedt tubes using a FastPrep FP120 cell disrupter (3×45 seconds at setting 4). The lysed cells were centrifuged and glycerol was added to the resulting supernatant to a final concentration of 15% (v/v). Aliquots were snap-frozen in liquid nitrogen and were stored at −70° C.
# PDE activity was determined in 50 mM HEPES, pH 7.5, 0.5 mM EDTA, 10 mM MgCl2, and 50 mg/ml BSA in a final assay volume of 100 μl. Each assay contained 50,000 cpm of ^3H-labeled cAMP, with unlabeled cAMP added to adjust the desired total substrate concentration. […] The standard reaction time was set to 15 minutes, and the amount of enzyme was always chosen so that no more than 15% of the substrate was hydrolyzed. Inhibitor studies were done at a cAMP concentration of 1 μM. Inhibitors were dissolved in DMSO, but the final DMSO concentration in the assays never exceeded 1%. Control reactions with DMSO alone were always included. Reactions were stopped by the addition of 25 μl of 0.5 N HCl. For the subsequent dephosphorylation of the AMP, the stopped reactions were neutralized with 20 μl of 1 M Tris base, followed by the addition of 10 μl of alkaline phosphatase (Roche Diagnostics; 1 unit/10 μl). The dephosphorylation reactions were incubated for 15 minutes at 37° C. and were then applied to 1 ml columns of QAE-Sephadex A25 in 30 mM ammonium formiate, pH 6.0. The ^3H-adenosine formed as a reaction product was eluted with 1.6 ml of 30 mM ammonium formiate, pH 6.0 and was collected into 3.5 ml of water-soluble scintillation fluid (Packard Ultima Flo). Assays were performed in triplicate, and data were analyzed using the Graph Pad Prism software package.
# LmPDE-B2 = assay: PDE activity assay in yeast lysates, recombinant LmPDE-B2 (3H-cAMP hydrolysis); assay type: biochemical, Leishmania major; conditions: 100 μM inhibitor, 1 μM cAMP
# Procedure: as §1
# PDE activity was determined in 50 mM HEPES, pH 7.5, 0.5 mM EDTA, 10 mM MgCl2, and 50 mg/ml BSA in a final assay volume of 100 μl. Each assay contained 50,000 cpm of ^3H-labeled cAMP, with unlabeled cAMP added to adjust the desired total substrate concentration. […] Assays were performed in triplicate, and data were analyzed using the Graph Pad Prism software package.
# Chain of LmPDE-B1 (Q6S997 entry or part of it): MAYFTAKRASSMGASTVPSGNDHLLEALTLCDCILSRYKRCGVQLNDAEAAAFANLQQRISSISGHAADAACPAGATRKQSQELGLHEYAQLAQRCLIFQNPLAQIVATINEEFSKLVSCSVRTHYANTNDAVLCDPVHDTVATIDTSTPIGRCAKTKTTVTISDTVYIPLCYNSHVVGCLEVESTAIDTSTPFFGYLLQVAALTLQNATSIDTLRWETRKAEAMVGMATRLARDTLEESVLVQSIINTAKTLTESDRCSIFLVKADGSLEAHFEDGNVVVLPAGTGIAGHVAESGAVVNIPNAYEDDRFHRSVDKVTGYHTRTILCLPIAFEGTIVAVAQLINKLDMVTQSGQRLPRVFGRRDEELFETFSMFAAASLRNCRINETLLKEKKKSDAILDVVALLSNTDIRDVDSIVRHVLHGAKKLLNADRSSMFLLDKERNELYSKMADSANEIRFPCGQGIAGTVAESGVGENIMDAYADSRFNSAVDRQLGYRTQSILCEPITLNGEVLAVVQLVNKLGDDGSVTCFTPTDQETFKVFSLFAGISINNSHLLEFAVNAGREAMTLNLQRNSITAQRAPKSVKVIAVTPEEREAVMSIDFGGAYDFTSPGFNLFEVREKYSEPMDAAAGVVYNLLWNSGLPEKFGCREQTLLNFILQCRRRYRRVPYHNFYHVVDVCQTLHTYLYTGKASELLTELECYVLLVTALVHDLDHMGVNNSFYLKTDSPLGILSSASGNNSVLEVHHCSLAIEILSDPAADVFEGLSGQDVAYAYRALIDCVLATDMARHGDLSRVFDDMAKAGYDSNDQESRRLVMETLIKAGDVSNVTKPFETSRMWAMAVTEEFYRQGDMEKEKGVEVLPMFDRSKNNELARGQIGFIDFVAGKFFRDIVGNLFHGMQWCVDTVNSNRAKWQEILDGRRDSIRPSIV
Compound,effect on rate of hydrolysis of cAMP by LmPDE-B1 (LmPDE-B1; 100-fold excess of cGMP),sensitivity of LmPDE-B1 activity to PDE inhibitor (LmPDE-B1),IC50 (LmPDE-B1) [µM],sensitivity of LmPDE-B2 activity to PDE inhibitor (LmPDE-B2),"IC50 (LmPDE-B1; 1 μM cAMP, yeast lysate) [µM]","sensitivity of LmPDE-B1 activity to PDE inhibitor (LmPDE-B1; 100 μM inhibitor, 1 μM cAMP)"
"Nc1nc2c(ncn2[C@@H]2O[C@@H]3COP(=O)(O)O[C@H]3[C@H]2O)c(=O)[nH]1 [cGMP, cyclic guanosine mono-phosphate]",did not affect,–,–,–,–,–
OCCN(CCO)c1nc(N2CCCCC2)c2nc(N(CCO)CCO)nc(N3CCCCC3)c2n1 [dipyridamole],–,partly sensitive,22.6,partly sensitive,–,–
COc1cc2c(cc1OC)-c1c/c(=N\c3c(C)cc(C)cc3C)n(C)c(=O)n1CC2 [trequinsin],–,–,–,partly sensitive,96.6,partly sensitive
